Tests used:
HDAC6 recombinant enzyme = target: T1, HDAC6 recombinant enzyme (Homo sapiens, UniProt Q9UBN7); assay: Fluorimetric HDAC6 assay; type: biochemical; conditions: singlicate
T1 sequence (Q9UBN7 1-1215): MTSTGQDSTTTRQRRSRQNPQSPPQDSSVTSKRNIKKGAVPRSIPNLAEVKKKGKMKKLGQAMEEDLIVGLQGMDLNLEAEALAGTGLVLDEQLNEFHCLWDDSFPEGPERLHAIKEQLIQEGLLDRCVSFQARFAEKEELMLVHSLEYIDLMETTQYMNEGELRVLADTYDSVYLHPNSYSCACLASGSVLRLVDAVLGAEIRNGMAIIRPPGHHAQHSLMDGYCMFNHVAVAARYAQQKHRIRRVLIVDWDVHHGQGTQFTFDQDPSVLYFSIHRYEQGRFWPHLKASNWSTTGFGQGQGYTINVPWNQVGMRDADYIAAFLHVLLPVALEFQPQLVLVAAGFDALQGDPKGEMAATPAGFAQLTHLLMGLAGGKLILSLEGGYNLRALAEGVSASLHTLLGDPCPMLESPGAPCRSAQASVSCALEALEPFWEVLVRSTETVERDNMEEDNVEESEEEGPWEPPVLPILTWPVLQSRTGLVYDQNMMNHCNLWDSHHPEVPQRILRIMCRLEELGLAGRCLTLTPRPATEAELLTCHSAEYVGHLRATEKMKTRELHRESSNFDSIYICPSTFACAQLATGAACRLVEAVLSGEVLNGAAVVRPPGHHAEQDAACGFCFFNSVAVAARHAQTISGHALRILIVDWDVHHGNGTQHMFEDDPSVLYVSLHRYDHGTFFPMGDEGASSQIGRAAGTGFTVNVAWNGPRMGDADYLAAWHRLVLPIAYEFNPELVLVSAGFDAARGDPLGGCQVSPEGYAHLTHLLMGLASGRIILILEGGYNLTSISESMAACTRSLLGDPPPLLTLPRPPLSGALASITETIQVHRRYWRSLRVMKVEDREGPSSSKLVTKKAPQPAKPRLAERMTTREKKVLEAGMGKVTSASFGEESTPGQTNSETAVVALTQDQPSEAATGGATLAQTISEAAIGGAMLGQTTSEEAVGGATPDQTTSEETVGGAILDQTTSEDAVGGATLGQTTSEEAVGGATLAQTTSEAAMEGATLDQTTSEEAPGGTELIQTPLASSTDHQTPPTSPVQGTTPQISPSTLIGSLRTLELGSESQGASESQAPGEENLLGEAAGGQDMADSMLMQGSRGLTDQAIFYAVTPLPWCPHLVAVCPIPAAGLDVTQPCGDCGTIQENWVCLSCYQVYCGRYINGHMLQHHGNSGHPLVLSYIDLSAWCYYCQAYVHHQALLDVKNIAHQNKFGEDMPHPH
Method: In vitro assessments of compounds on the HDAC6 enzyme were performed, as described in our previous works. […] The blank employed for curve fitting was evaluated on a solution of the buffer containing a concentration of […] of DMSO. IC50 values were calculated by using the GraphPad Prism 4 program based on a sigmoidal dose–response equation.

[1] = tested on: acetylated tubulin (Ac-Tub) in LNCaP cells; assay: Western blot of acetylated α-Tubulin in LNCaP cells; type: cell-based, human; conditions: 24 h at GI50 concentration, normalized with Tubulin
Method: (§1) To assess whether the observed antiproliferative activity of the selected compounds was a consequence of HDAC6-targeting, we examined the effect of the cell treatments on the expression levels of acetylated tubulin (Ac-Tub), a well-known HDAC6 target. LNCaP and PC-3 cells were treated with the tested compounds at their GI50 concentrations, and SDS-PAGE and western blot were performed. In addition, the acetylation levels of histone H3, which are mainly regulated by HDAC1, were also evaluated in order to exclude potential class I-HDAC off-target activities. We used Tubastatin-A and Geldanamycin as reference controls for cellular effects resulting from HDAC6- and Hsp90-inhibition, respectively. The results in Figure 2 show a significant increase in α-Tubulin acetylation in LNCaP cells after treatments with compounds 8, 11 and 18. Indeed, these compounds triggered a 2.9-, 5.1-, and 2.5-fold increase, respectively, compared to the control (DMSO). […].
Figure 2 Western blot analysis and relative quantification of the expression levels of acetylated-Tubulin (Ac-TUB), acetylated H3 (Ac-H3), and HSP70 in LNCaP (A,B) and PC-3 (C,D) cells treated for 24 h at GI50 concentration. Tubastatin-A was used as HDAC6-specific positive control, Geldanamycin (GELDA) as HSP90-specific positive control, and SAHA as pan-HDAC inhibitor. Protein expression was normalized with Tubulin levels (Ac-TUB and HSP70) or total H3 (Ac-H3). Quantification is reported as fold change in treated cells versus DMSO control (CTR), arbitrarily set at 1 (one sample t-test p-values: * p < 0.05, ** p < 0.01, *** p < 0.001, **** p < 0.0001; n = 3).
(§2) Cell treatment. PC-3 and LNCaP cells were grown in 12-well tissue-culture plates and treated with test compounds at the evaluated GI50 concentration for each candidate inhibitor for 24 h. DMSO was used as a negative control, while Tubastatin-A and Geldanamycin were used as positive controls for HDAC6 and Hsp90 inhibition, respectively. Vorinostat (SAHA) was used as a pan-HDACi control. […] Protein quantitation was performed with Pierce Detergent Compatible Bradford Assay (#23246, Thermo Fisher Scientific, MA, USA), and equivalent amounts of cellular extracts were resolved by SDS-PAGE, transferred to PVDF or Nitrocellulose membrane with Trans-Blot Turbo Transfer System (Bio-Rad, Hercules, CA, USA), and immunoblotted with the following primary antibodies, diluted 1:1000 in 1× TBS with 1 mg/mL BSA: Anti-Histone H3 (#PA5-16183, Invitrogen, Thermo Fisher Scientific, MA, USA), Anti-acetylated histone H3 (#sc-518011, Santa Cruz Biotechnology, Inc., Dallas, TX, USA), Anti-Tubulin (#E-AB-20073, Elabscience, Houston, TX, USA), Anti-acetylated α-tubulin (#sc-23950, Santa Cruz), and Anti-HSP70 (#4872S, Cell Signaling Technology, Inc., Danvers, MA, USA). […]

[2] = tested on: acetylated tubulin (Ac-Tub) in PC-3 cells; assay: Western blot of acetylated α-Tubulin in PC-3 cells; type: cell-based, human; conditions: 24 h at GI50 concentration, normalized with Tubulin
Method: as §1
Figure 2 Western blot analysis and relative quantification of the expression levels of acetylated-Tubulin (Ac-TUB), acetylated H3 (Ac-H3), and HSP70 in LNCaP (A,B) and PC-3 (C,D) cells treated for 24 h at GI50 concentration. […]
as §2, with “treatment.” for “treatment. PC-3 and LNCaP cells were grown in 12-well tissue-culture plates and treated with test compounds at the evaluated GI50 concentration for each candidate inhibitor for 24 h. DMSO was used as a negative control, while Tubastatin-A and Geldanamycin were used as positive controls for HDAC6 and Hsp90 inhibition, respectively. Vorinostat (SAHA) was used as a pan-HDACi control.”

| SMILES | IC50 (HDAC6 recombinant enzyme) [nM] | α-Tubulin acetylation, fold increase compared to the control (DMSO) [1] [fold] | α-Tubulin acetylation, fold induction versus DMSO control [2] [fold] |
| --- | --- | --- | --- |
| O=C(c1cc(OCc2ccccc2)ccc1O)N1CCC(c2noc(C(F)(F)F)n2)CC1 [Compound 8] | 6500 | 2.9 | 7.3 |
| CC(C)[C@H](C(=O)NCc1ccc(C(=O)NO)cc1)N1Cc2ccccc2C1=O [Compound 11] | 5 | 5.1 | 5.5 |
| O=C(Nc1ncccc1O)c1ccc(-c2noc(C(F)(F)F)n2)cc1 [Compound 18] | 2700 | 2.5 | 4.9 |
